Assay results from patent US8362074B2, “Synergistic insecticidal compositions” (priority 1999, dated 2013).

Key:
[1] = test system: adult male German cockroaches (Blattella germanica); assay: Treated dog chow bait test on adult male German cockroaches; format: in vivo; settings: 1.00 % active ingredient
Description: In this evaluation, adult male German cockroaches (Blattella germanica) are used. For each test, a 4.0 g portion of ground Purina Dog Chow (Hi-Pro Glo®) is treated with an acetone solution of test compound alone or in combination with a second test compound. After treatment, the acetone is evaporated and the treated dog chow is placed in a ¾ oz plastic cup which is placed in a harborage made of folded sheets of blotter paper placed in a plastic box (16″ L×11″ W×6″ H). The plastic box (test arena) is also fitted with a 1 oz narrow mouth bottle with 2 dental wicks inserted at the mouth. A control box is prepared in the same manner using ground dog chow which has been treated with reagent grade acetone. Each treatment is replicated three times. Into each test arena are placed 20 healthy adult male cockroaches which have been reared in an insectary. The test arenas are then stored at 76° F. and mortality is determined daily by visual examination.

[2] = test system: Helicoverpa zea (cotton bollworm) larvae; assay: Treated artificial diet surface test on cotton bollworm larvae; format: in vivo
Description: In this evaluation, Helicoverpa zea (cotton bollworm) larvae are obtained from a laboratory colony. Test compounds are dissolved in 1:1 v/v acetone/water. Plastic bioassay trays (C-D International, Pitman, N.J.) are used as test arenas. Each tray contains 32 open-faced wells, 4.0×4.0×2.5 cm. A portion (5 ml) of a wheat germ-soybean flour-based artificial diet (Southland Products, Lake Village, Ark.) is poured into each well. After the diet hardened, 0.4 ml of test solution is pipetted onto the diet surface in each well. Test solutions are evenly spread over surfaces of diet by picking up the tray and gently tilting it from side to side. Trays are then held in a vented area for about 2 h, until water is no longer pooled on diet surfaces. A single 4-day-old H. zea larva is then placed on the surface of diet in each well. After larval infestation, each well is covered with an adhesive, vented, clear plastic sheet.
All test arenas are held under constant fluorescent light and a temperature of about 27° C. for duration of the assay. Larval mortality is determined at 2, 3, 4 and 7 days after treatment. […] A total of 32 insects were tested for each treatment.

CC1(C)CNC(=NN=C(/C=C/c2ccc(C(F)(F)F)cc2)/C=C/c2ccc(C(F)(F)F)cc2)NC1 [Compound B, hydramethylnon]
mortality at 1 % strength ([1]; 72 h, 3 days after treatment): 0%
mortality at 1 % strength ([1]; 96 h, 4 days after treatment): 5%
mortality at 1 % strength ([1]; 120 h, 5 days after treatment): 28.3%
mortality at 1 % strength ([1]; 144 h, 6 days after treatment): 71.7%
mortality at 1 % strength ([1]; 168 h, 7 days after treatment): 90%
mortality at 1 % strength ([1]; 192 h, 8 days after treatment): 93.3%
% Mortality ([2]; 100 OB/ml, 2 days after treatment): 3.1%
% Mortality ([2]; 100 OB/ml, 3 days after treatment): 3.1%
% Mortality ([2]; 100 OB/ml, 4 days after treatment): 3.1%
% Mortality ([2]; 100 OB/ml, 7 days after treatment): 15.6%
% Mortality ([2]; 500 OB/ml, 2 days after treatment): 0.0%
% Mortality ([2]; 500 OB/ml, 3 days after treatment): 9.4%
% Mortality ([2]; 500 OB/ml, 4 days after treatment): 18.8%
% Mortality ([2]; 500 OB/ml, 7 days after treatment): 40.6%
% Mortality ([2]; 1000 OB/ml, 2 days after treatment): 3.1%
% Mortality ([2]; 1000 OB/ml, 3 days after treatment): 34.4%
% Mortality ([2]; 1000 OB/ml, 4 days after treatment): 50.5%
% Mortality ([2]; 1000 OB/ml, 7 days after treatment): 62.5%
